The structures appear in SMILES notation. pEC50: −log10 of the molar value.

For one data set, the target named is T1, 5-HT2C receptor (Homo sapiens, UniProt P28335).
T1 construct: host or cells: U2OS
Description: Human 5-HT2C functional assay (beta-arrestin2 recruitment, U2OS_HTR2C_β-Arrestin cells). In kind it is cell-based. As to conditions: compounds used as acid addition salts; for pEC50: U2OS_HTR2C_β-Arrestin cells, 1.5 h incubation, read-out: EC50 5-HT2C (potency in functional assay); for Emax: relative efficacy vs response to 10 µM 5-HT or maximal effect of 5-HT (100%). The method, then: The functional activity of compounds of formula I was assayed by incubation with U2OS_HTR2C_β-Arrestin cells (DiscoverX, 93-0289C3) to induce beta-arrestin2 recruitment to the 5-HT2C receptor. The agonist-induced recruitment and proximity of the receptor and beta-arrestin2 leads to complementation and formation of active β-galactosidase. The enzyme complementation results in enzyme activity, which is measured following the termination of the agonist incubation using DiscoveRx's detection reagent, which contains a chemiluminescent substrate which produces a high intensity signal. Cells were plated and a medium-change to a 1% serum containing medium was performed 24 h later. The next day, test compounds were added and incubated for 1.5 h before addition of detection reagent.
The response produced was measured and compared with the response produced by 10 [mu]M 5-HT or the maximal effect induced by 5-HT (defined as 100%) to which it was expressed as a percentage response (relative efficacy). Dose response curves were con-structed using Graphpad Prism (Graph Software Inc.) or using in house adapted software using a 4 parameter dose response model with variable slope (fit=(Bottom+(Top−Bottom)/(1+10^((LogEC50−x)*Hill Slope))res=(y−fit)). Results are compiled in the table below.
In general terms: Arrestin recruitment assays detect the binding of arrestin to an activated receptor.

Data set [1] is described as follows: Metabolic stability: unbound intrinsic clearance in liver microsomes. In kind it is in vitro ADME. The following applies: rat; liver microsomes 0.25 mg protein/mL, 0.5 μM compound, pH 7.4, 37° C.; Cl int unbound=Cl int/fu mic; compounds used as acid addition salts; read-out: Cl int, mic unb. (r) (unbound intrinsic clearance). The method, then: Samples of the tested compounds (0.5 μM) were preincubated together with rat liver microsomes (0.25 mg of microsomal protein/mL) in 0.05 M potassium phosphate buffer of pH 7.4 in microtiter plates at 37° C. for 5 minutes. The reaction was started by adding NADPH (1.0 mM). After 0, 5, 10, 15, 20 and 30 minutes, an aliquot was removed, the reaction was cooled and stopped by adding twice the amount of quench solution consisting of acetonitrile/methanol 1:1, and containing […] carbutamide as internal standard. The samples were frozen until analyzed. The remaining concentration of undegraded test substance was determined by liquid chromatography-tandem mass spectrometry (LC-MS/MS). The half-life (t1/2) was determined from the gradient of the ratio of the signal of (test substance/internal standard)/unit time plot, allowing the calculation of the half-life of the test substance, assuming first order kinetics, from the decrease in the concentration of the compound with time. The microsomal clearance (mClint) was calculated as follows: mClint=((ln(2)/t 1/2)/Microsomal Protein Concentration (mg/ml))*1000, leading to the unit of uL/min/mg. The scaled clearance (mClin_scaled) was calculated as mCLint_scaled=m CLint*(Microsomal Yield (mg/kg BW))/1000000*60, leading to the units L/h/kg. The Microsomal Yield is defined by the specifics of the used microsomes. Calculations were modified from refer-ences: Di, The Society for Biomolecular Screening, 2003, 453-462; Obach, D M D, 1999 vol 27. N 11, 1350-1359.
A suspension of 0.25 mg/ml microsomal protein spiked with 0.5 μM of test compound was pipetted on one side of a HTDialysis device (HTDialysis LLC,37 Ledgewood Drive, Gales Fery Conn. 06335) separated by a membrane with a MWcut off 12-14 K. 50 mM K-Phosphate buffer (pH 7.4) was added on the other side of the well. After incubation at 37° C. for 4 h while shaking at 150 rpm, aliquots of both sides were taken, quenched with MeOH/ACN 1:1 and 0.2 μM of internal standard and frozen until analy-sis by LCMSMS.
Cl int unbound=Cl int/fu mic
The compounds were used in form of their respective acid addition salts.
(Microsomes from liver hold many membrane-bound enzymes, among them those of drug oxidation.)

T1 sequence (P28335 33-458): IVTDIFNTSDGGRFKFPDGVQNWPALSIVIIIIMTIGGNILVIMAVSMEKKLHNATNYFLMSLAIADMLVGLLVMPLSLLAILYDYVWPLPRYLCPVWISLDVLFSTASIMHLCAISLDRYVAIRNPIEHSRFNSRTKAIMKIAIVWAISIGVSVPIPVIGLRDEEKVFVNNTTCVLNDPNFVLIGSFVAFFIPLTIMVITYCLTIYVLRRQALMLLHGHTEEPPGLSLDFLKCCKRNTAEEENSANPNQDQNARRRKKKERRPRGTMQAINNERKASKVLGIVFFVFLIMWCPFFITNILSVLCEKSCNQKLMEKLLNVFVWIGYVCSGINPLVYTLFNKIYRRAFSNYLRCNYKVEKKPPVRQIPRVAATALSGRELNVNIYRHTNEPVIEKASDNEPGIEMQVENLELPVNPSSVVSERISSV
T1 sequence (P32121 whole entry partner): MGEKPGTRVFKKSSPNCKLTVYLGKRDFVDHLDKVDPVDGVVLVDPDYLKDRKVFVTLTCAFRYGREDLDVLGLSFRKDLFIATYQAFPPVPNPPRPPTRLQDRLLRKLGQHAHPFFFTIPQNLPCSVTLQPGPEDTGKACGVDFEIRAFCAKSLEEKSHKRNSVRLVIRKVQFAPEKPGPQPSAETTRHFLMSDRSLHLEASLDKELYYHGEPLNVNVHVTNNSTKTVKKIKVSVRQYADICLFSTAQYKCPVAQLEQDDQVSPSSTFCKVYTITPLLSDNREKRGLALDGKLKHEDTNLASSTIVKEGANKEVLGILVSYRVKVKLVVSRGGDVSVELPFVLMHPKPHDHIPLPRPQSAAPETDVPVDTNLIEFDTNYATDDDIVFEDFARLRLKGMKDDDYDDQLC

By pEC50 is commonly meant the negative decadic logarithm of the EC50, by convention in mol/L. In general, Emax refers to the size of the effect at its maximum, as opposed to the concentration needed. For `COc1cc(OCc2ccnc(F)c2)c(F)cc1CNC(=O)[C@@H]1CCCN1` [Example 8, (2S)—N-[[5-fluoro-4-[(2-fluoro-4-pyridyl)methoxy]-2-methoxy-phenyl]methyl]-pyrrolidine-2-carboxamide], on 5-HT2C receptor, the pEC50 was 7.52 to 7.82 and the Emax was greater than 70%. The CLint scaled at 0.5 μM in data set [1] is less than 500 mL/min/kg.
Taken in the same sequence, the figures for `COc1cc(O[C@H]2CC[C@H](F)CC2)c(F)cc1CNC(=O)[C@@H]1CCCN1` [Example 17, (S)—N-(5-Fluoro-4-((trans-4-fluorocyclohexyl)oxy)-2-methoxybenzyl)pyrrolidine-2-carboxamide] were 7.82 to 8.30, greater than 70% and less than 500 mL/min/kg.
In the case of `COc1cc(OC2CC(F)(F)C2)c(F)cc1CNC(=O)[C@@H]1CCCN1` [Example 28, (2S)—N-[[4-(3,3-Difluorocyclobutoxy)-5-fluoro-2-methoxy-phenyl]methyl]-pyrrolidine-2-carboxamide], on 5-HT2C receptor, the pEC50 is 7.82 to 8.30 and the maximum response (Emax) is greater than 70%. For the same compound, in data set [1], the CLint scaled at 0.5 μM was less than 500 mL/min/kg.
Regarding `COc1cc(OCCc2cccc(F)c2)c(F)cc1CNC(=O)[C@@H]1CCCN1` [Example 12, (2S)—N-[[5-Fluoro-4-[2-(3-fluorophenyl)ethoxy]-2-methoxy-phenyl]methyl]-pyrrolidine-2-carboxamide], on 5-HT2C receptor, the pEC50 is 7.82 to 8.30 and the maximum response (Emax) is greater than 70%. Besides, the CLint scaled at 0.5 μM in data set [1] fell in the range of 1330 to 4170 mL/min/kg.
Turning to `COc1cc(O[C@H]2CC[C@@H](C(F)(F)F)CC2)c(F)cc1CNC(=O)[C@@H]1CCCN1` [Example 34, (S)—N-(5-Fluoro-4-((cis-4-trifluoromethyl-cyclohexyl)oxy)-2-methoxybenzyl)-pyrrolidine-2-carboxamide], at 5-HT2C receptor, the pEC50 was 7.82 to 8.30 and the Emax was greater than 70%. In data set [1], the CLint scaled at 0.5 μM was in the range of 1330 to 4170 mL/min/kg.
For the compound `COc1cc(OCc2cncc(F)c2)c(F)cc1CNC(=O)[C@@H]1CCCN1` [Example 9, (2S)—N-[[5-Fluoro-4-[(5-fluoro-3-pyridyl)methoxy]-2-methoxy-phenyl]methyl]-pyrrolidine-2-carboxamide], on 5-HT2C receptor, the pEC50 was 7.52 to 7.82 and the Emax was greater than 70%. The CLint scaled at 0.5 μM in data set [1] lay in the range of 500 to 1330 mL/min/kg.
For the compound `COc1cc(OCC2CCC(F)(F)C2)c(F)cc1CNC(=O)[C@@H]1CCCN1` (stereo partly drawn) [Example 31, (2S)—N-[[4-[(3,3-Difluorocyclopentyl)methoxy]-5-fluoro-2-methoxy-phenyl]methyl]-pyrrolidine-2-carboxamide], at 5-HT2C receptor, the pEC50 is 7.82 to 8.30 and the Emax is greater than 70%. Also, in data set [1], the CLint scaled at 0.5 μM is less than 500 mL/min/kg.
Taken in the same sequence, the figures for `COc1cc(OC2CCC(F)(F)CC2)c(F)cc1CNC(=O)[C@@H]1CCCN1C` [Example 40, (2S)—N-[[4-(4,4-Difluorocyclohexoxy)-5-fluoro-2-methoxy-phenyl]methyl]-1-methyl-pyrrolidine-2-carboxamide] were 7.52 to 7.82, greater than 70% and 500 to 1330 mL/min/kg.
Taken in the same sequence, the figures for `COc1cc(OCC2CCC(F)(F)CC2)c(F)cc1CNC(=O)[C@@H]1CCCN1` [Example 32, (2S)—N-[[4-[(4,4-Difluorocyclohexyl)methoxy]-5-fluoro-2-methoxy-phenyl]methyl]-pyrrolidine-2-carboxamide] were 7.82 to 8.30, greater than 70% and less than 500 mL/min/kg.
Taken in the same sequence, the figures for `COc1cc(OCc2cccc(F)c2F)c(F)cc1CNC(=O)[C@@H]1CCCN1` [Example 4, (2S)—N-[[4-[(2,3-Difluorophenyl)methoxy]-5-fluoro-2-methoxy-phenyl]methyl]-pyrrolidine-2-carboxamide] were 7.82 to 8.30, greater than 70% and 1330 to 4170 mL/min/kg.
As for `COc1cc(OC2CCCC(C(F)(F)F)C2)c(F)cc1CNC(=O)[C@@H]1CCCN1` (stereo partly drawn) [Example 35, (2S)—N-[[5-Fluoro-2-methoxy-4-[3-(trifluoromethyl)cyclohexoxy]phenyl]methyl]-pyrrolidine-2-carboxamide], at 5-HT2C receptor, the pEC50 was greater than 8.30 and the Emax is greater than 70%. Moreover, the CLint scaled at 0.5 μM in data set [1] is 500 to 1330 mL/min/kg.
On to `COc1cc(OCc2cc(F)cc(F)c2)c(F)cc1CNC(=O)[C@@H]1CCCN1` [Example 5, (2S)—N-[[4-[(3,5-Difluorophenyl)methoxy]-5-fluoro-2-methoxy-phenyl]methyl]-pyrrolidine-2-carboxamide], for which, on 5-HT2C receptor, the pEC50 is greater than 8.30 and the Emax was greater than 70%. Besides, the CLint scaled at 0.5 μM in data set [1] was 1330 to 4170 mL/min/kg.
Taken in the same sequence, the figures for `COc1cc(OCC2CC2(F)F)c(F)cc1CNC(=O)[C@@H]1CCCN1` (stereo partly drawn) [Example 26, (2S)—N-[[4-[(2,2-Difluorocyclopropyl)methoxy]-5-fluoro-2-methoxy-phenyl]-methyl]pyrrolidine-2-carboxamide] were 7.52 to 7.82, greater than 70% and less than 500 mL/min/kg.
Take `COc1cc(OCc2ccc(C(F)(F)F)o2)c(F)cc1CNC(=O)[C@@H]1CCCN1` [Example 15, (2S)—N-[[5-fluoro-2-methoxy-4-[[5-(trifluoromethyl)-2-furyl]methoxy]phenyl]-methyl]pyrrolidine-2-carboxamide]: at 5-HT2C receptor, the pEC50 is 7.82 to 8.30 and the maximal response (Emax) is greater than 70%. Further, in data set [1], the CLint scaled at 0.5 μM fell in the range of 1330 to 4170 mL/min/kg.
Taken in the same sequence, the figures for `COc1cc(OCC2CCC(F)(F)C2)c(F)cc1CNC(=O)[C@@H]1CCCN1C` (stereo partly drawn) [Example 38, (2S)—N-[[4-[(3,3-Difluorocyclopentyl)methoxy]-5-fluoro-2-methoxy-phenyl]methyl]-1-methyl-pyrrolidine-2-carboxamide] were 7.52 to 7.82, greater than 70% and 1330 to 4170 mL/min/kg.
Taken in the same sequence, the figures for `COc1cc(OCCc2ccccc2F)c(F)cc1CNC(=O)[C@@H]1CCCN1` [Example 13, (2S)—N-[[5-Fluoro-4-[2-(2-fluorophenyl)ethoxy]-2-methoxy-phenyl]methyl]-pyrrolidine-2-carboxamide] were greater than 8.30, greater than 70% and 1330 to 4170 mL/min/kg.
For `COc1cc(OCC2CC(F)(F)C2)c(F)cc1CNC(=O)[C@@H]1CCCN1` [Example 29, (2S)—N-[[4-[(3,3-Difluorocyclobutyl)methoxy]-5-fluoro-2-methoxy-phenyl]methyl]-pyrrolidine-2-carboxamide], on 5-HT2C receptor, the pEC50 is 7.82 to 8.30 and the Emax is greater than 70%. The CLint scaled at 0.5 μM in data set [1] was less than 500 mL/min/kg.
Taken in the same sequence, the figures for `COc1cc(OCc2ccccc2F)c(F)cc1CNC(=O)[C@@H]1CCCN1` [Example 6, (2S)—N-[[5-Fluoro-4-[(2-fluorophenyl)methoxy]-2-methoxy-phenyl]methyl]-pyrrolidine-2-carboxamide] were 7.52 to 7.82, greater than 70% and 1330 to 4170 mL/min/kg.
Taken in the same sequence, the figures for `[2H]C1([2H])NC([2H])(C(=O)NCc2cc(F)c(OC3CCC(C(F)(F)F)CC3)cc2OC)C([2H])([2H])C1([2H])[2H]` (stereo not drawn) [Example 42, 2,3,3,4,4,5,5-Heptadeuterio-N-[[5-fluoro-2-methoxy-4-[4-(trifluoromethyl)cyclohexoxy]phenyl]methyl]pyrrolidine-2-carboxamide] were greater than 8.30, greater than 70% and less than 500 mL/min/kg.
As for `COc1cc(OCCC(F)(F)F)c(F)cc1CNC(=O)[C@@H]1CCCN1` [Example 19, (2S)—N-[[5-Fluoro-2-methoxy-4-(3,3,3-trifluoropropoxy)phenyl]methyl]pyrrolidine-2-carboxamide], on 5-HT2C receptor, the pEC50 is 7.52 to 7.82 and the Emax is greater than 70%. Further, in data set [1], the CLint scaled at 0.5 μM is less than 500 mL/min/kg.

(Values after US20200039930A1, “PROLINE AMIDE COMPOUNDS AND THEIR AZETIDINE ANALOGUES CARRYING A SPECIFICALLY SUBSTITUTED BENZYL RADICAL” (AbbVie Deutschland GmbH & Co. KG, priority 2017, published 2020).)
